Laboratory results as given in PubChem BioAssay (NCI).
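Test compounds were applied to cells in 96-well plates for 48 hours at 5 doses. TGI marks complete inhibition of growth.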

What was measured:
Assay in all cases: NCI tumour cell line growth inhibition, 48 h
786-0 renal = test system: 786-0 renal
A498 renal = test system: A498 renal
A549 NSCLC = test system: A549 NSCLC
ACHN renal = test system: ACHN renal
CAKI-1 renal = test system: CAKI-1 renal
CCRF-CEM leukemia = test system: CCRF-CEM leukemia
COLO 205 colon = test system: COLO 205 colon
DMS 114 small cell lung = test system: DMS 114 small cell lung
DMS 273 small cell lung = test system: DMS 273 small cell lung
EKVX NSCLC = test system: EKVX NSCLC
HCT-116 colon = test system: HCT-116 colon
HCT-15 colon = test system: HCT-15 colon
HL-60(TB) leukemia = test system: HL-60(TB) leukemia
HOP-18 NSCLC = test system: HOP-18 NSCLC
HOP-62 NSCLC = test system: HOP-62 NSCLC
HOP-92 NSCLC = test system: HOP-92 NSCLC
HT29 colon = test system: HT29 colon
IGROV1 ovarian = test system: IGROV1 ovarian
K-562 leukemia = test system: K-562 leukemia
KM12 colon = test system: KM12 colon
KM20L2 colon = test system: KM20L2 colon
LOX IMVI melanoma = test system: LOX IMVI melanoma
LXFL 529 NSCLC = test system: LXFL 529 NSCLC
M14 melanoma = test system: M14 melanoma
M19-MEL melanoma = test system: M19-MEL melanoma
MOLT-4 leukemia = test system: MOLT-4 leukemia
NCI-H226 lung = test system: NCI-H226 lung
NCI-H23 lung = test system: NCI-H23 lung
NCI-H460 lung = test system: NCI-H460 lung
NCI-H522 lung = test system: NCI-H522 lung
OVCAR-3 ovarian = test system: OVCAR-3 ovarian
OVCAR-4 ovarian = test system: OVCAR-4 ovarian
OVCAR-5 ovarian = test system: OVCAR-5 ovarian
RPMI-8226 leukemia = test system: RPMI-8226 leukemia
SF-268 CNS = test system: SF-268 CNS
SF-539 CNS = test system: SF-539 CNS
SK-MEL-2 melanoma = test system: SK-MEL-2 melanoma
SK-MEL-28 melanoma = test system: SK-MEL-28 melanoma
SK-OV-3 ovarian = test system: SK-OV-3 ovarian
SN12C renal = test system: SN12C renal
SNB-19 CNS = test system: SNB-19 CNS
SNB-78 CNS = test system: SNB-78 CNS
SR leukemia = test system: SR leukemia
SW-620 colon = test system: SW-620 colon
TK-10 renal = test system: TK-10 renal
U251 CNS = test system: U251 CNS
UACC-62 melanoma = test system: UACC-62 melanoma
UO-31 renal = test system: UO-31 renal
MALME-3M melanoma = test system: MALME-3M melanoma
OVCAR-8 ovarian = test system: OVCAR-8 ovarian
RXF 393 renal = test system: RXF 393 renal
SF-295 CNS = test system: SF-295 CNS
SK-MEL-5 melanoma = test system: SK-MEL-5 melanoma
SNB-75 CNS = test system: SNB-75 CNS
UACC-257 melanoma = test system: UACC-257 melanoma
XF 498 CNS = test system: XF 498 CNS

Measured: TGI

NC(CCSCCF)C(=O)O (stereo unspecified)
> 100 µM: 786-0 renal | A498 renal | A549 NSCLC | ACHN renal | CAKI-1 renal | CCRF-CEM leukemia | COLO 205 colon | DMS 114 small cell lung | DMS 273 small cell lung | EKVX NSCLC | HCT-116 colon | HCT-15 colon | HL-60(TB) leukemia | HOP-18 NSCLC | HOP-62 NSCLC | HOP-92 NSCLC | HT29 colon | IGROV1 ovarian | K-562 leukemia | KM12 colon | KM20L2 colon | LOX IMVI melanoma | LXFL 529 NSCLC | M14 melanoma | M19-MEL melanoma | MOLT-4 leukemia | NCI-H226 lung | NCI-H23 lung | NCI-H460 lung | NCI-H522 lung | OVCAR-3 ovarian | OVCAR-4 ovarian | OVCAR-5 ovarian | RPMI-8226 leukemia | SF-268 CNS | SF-539 CNS | SK-MEL-2 melanoma | SK-MEL-28 melanoma | SK-OV-3 ovarian | SN12C renal | SNB-19 CNS | SNB-78 CNS | SR leukemia | SW-620 colon | TK-10 renal | U251 CNS | UACC-62 melanoma | UO-31 renal

O[C@]12c3ccccc3C1CCCC2N1CCOCC1 (stereo partly specified)
> 100 µM: 786-0 renal | A549 NSCLC | ACHN renal | CCRF-CEM leukemia | COLO 205 colon | DMS 114 small cell lung | DMS 273 small cell lung | EKVX NSCLC | HCT-116 colon | HCT-15 colon | HL-60(TB) leukemia | HOP-18 NSCLC | HOP-62 NSCLC | HT29 colon | K-562 leukemia | KM12 colon | KM20L2 colon | LOX IMVI melanoma | LXFL 529 NSCLC | M14 melanoma | M19-MEL melanoma | MALME-3M melanoma | MOLT-4 leukemia | NCI-H226 lung | NCI-H23 lung | NCI-H460 lung | NCI-H522 lung | OVCAR-4 ovarian | OVCAR-8 ovarian | RPMI-8226 leukemia | RXF 393 renal | SF-268 CNS | SF-295 CNS | SK-MEL-2 melanoma | SK-MEL-28 melanoma | SK-MEL-5 melanoma | SK-OV-3 ovarian | SN12C renal | SNB-19 CNS | SNB-75 CNS | SNB-78 CNS | SW-620 colon | TK-10 renal | U251 CNS | UACC-257 melanoma | UACC-62 melanoma | UO-31 renal | XF 498 CNS
